Measured values taken from patent US9765075B2, “Substituted bridged urea analogs as sirtuin modulators” (GLAXOSMITHKLINE LLC, priority 2013, dated 2017).
Read-outs that look alike come from different tables or passages of the source.

Biological target: T1, SIRT1 (Homo sapiens, UniProt Q96EB6)
T1 sequence (Q96EB6 1-747): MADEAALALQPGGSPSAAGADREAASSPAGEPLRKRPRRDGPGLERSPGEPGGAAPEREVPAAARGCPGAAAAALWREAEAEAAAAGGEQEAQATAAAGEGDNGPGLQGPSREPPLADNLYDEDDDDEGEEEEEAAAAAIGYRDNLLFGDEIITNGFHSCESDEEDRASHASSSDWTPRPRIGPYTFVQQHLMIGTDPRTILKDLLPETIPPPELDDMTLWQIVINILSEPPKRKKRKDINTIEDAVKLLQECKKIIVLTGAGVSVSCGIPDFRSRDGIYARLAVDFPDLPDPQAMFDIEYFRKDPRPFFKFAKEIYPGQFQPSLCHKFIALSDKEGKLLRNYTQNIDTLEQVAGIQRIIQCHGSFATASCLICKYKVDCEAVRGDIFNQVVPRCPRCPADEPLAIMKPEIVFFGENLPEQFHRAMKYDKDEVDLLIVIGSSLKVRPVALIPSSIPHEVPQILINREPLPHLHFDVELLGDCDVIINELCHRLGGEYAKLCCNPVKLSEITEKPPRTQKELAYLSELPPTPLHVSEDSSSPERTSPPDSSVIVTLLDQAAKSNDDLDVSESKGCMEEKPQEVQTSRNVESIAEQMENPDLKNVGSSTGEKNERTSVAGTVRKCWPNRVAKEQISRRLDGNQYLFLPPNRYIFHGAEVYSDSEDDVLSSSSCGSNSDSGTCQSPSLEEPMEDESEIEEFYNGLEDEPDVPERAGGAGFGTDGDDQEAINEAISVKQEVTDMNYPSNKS
Experiment: Trp mass spectrometry assay (SIRT1 activation)
Assay type: biochemical
Details: for Emax: percent maximum fold activation of SIRT1, read-out: Tryp % Fold Act
Method in brief: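 Activation is expressed as EC1.5, the concentration raising activity 50% above DMSO control, and as maximum percent of control. Mass-spec readout was OAADPR or deacetylated Trp peptide after a formic-acid-quenched 25-min, 25 °C reaction: 10 nM bacterially expressed His-SIRT1, 0.5 μM acetyl-p53-derived peptide, 120 μM NAD+, pH 7.5 HEPES with […].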

[1] = concentration of test compound that results in 150% activation of SIRT1, Trp peptide substrate
[2] = Trp mass spectrometry assay, EC1.5 = concentration of test compound that results in 150% activation of SIRT1
[3] = Trp mass spectrometry assay, EC1.5 = concentration giving 150% activation of SIRT1

SMILES	Tryp AVG EC1.5 (μM) [1]	Emax (Trp peptide substrate) [%]	Emax (Trp mass spectrometry assay) [%]	Tryp AVG EC1.5 (μM) [2]	Tryp AVG EC1.5 (μM) [3]
CC(C)(C)OC(=O)N1CCc2cc(NC(=O)N3c4nc(-c5cccc(C(F)(F)F)c5)ccc4N4CC[C@H]3C4)ccc2C1 [Example 611]	A (EC1.5<1 μM)	≥ 150			
O=C(Nc1cncc(F)c1)N1c2nc(-c3cncc(Cl)c3)ccc2N2CCC1CC2 [Example 545]	B (EC1.5 1-25 μM)	≥ 150			
O=C(Nc1ccncn1)N1c2nc(-c3cccc(C(F)(F)F)c3)ccc2N2CCC[C@H]1C2 [Example 29]			≥ 150		
COc1cc(NC(=O)N2c3nc(-c4cncc(C(F)(F)F)c4)ccc3N3CC[C@H]2C3)ncn1 [Example 317]	B (EC1.5 1-25 μM)	≥ 150			
O=C(O)c1cc(NC(=S)NCc2ccc(NC(=O)N3c4nc(-c5cccc(C(F)(F)F)c5)ccc4N4CCC[C@H]3C4)cc2)ccc1-c1c2ccc(=O)cc-2oc2cc(O)ccc12 [Example 563]	A (EC1.5<1 μM)	≥ 150			
O=C(Nc1cccc(-c2cnco2)n1)N1c2nc(-c3cncc(F)c3)ccc2N2CC[C@H]1C2 [Example 739]			≥ 150		A (EC1.5<1 μM)
O=C(Nc1ccncc1F)N1c2nc(-c3cccc(F)c3)ccc2N2CC[C@H]1C2 [Example 74]			≥ 150		
N#Cc1cccc(-c2ccc3c(n2)N(C(=O)Nc2ccccn2)[C@H]2CCCN3C2)c1 [Example 348]	A (EC1.5<1 μM)	≥ 150			
COc1cc(NC(=O)N2c3nc(-c4ccnc(C(F)(F)F)c4)ccc3N3CC[C@H]2C3)ncn1 [Example 133]			≥ 150	A (EC1.5<1 μM)	
O=C(Nc1ccccn1)N1c2nc(-c3cncc(F)c3)ccc2N2CCC[C@H]1C2 [Example 470]	A (EC1.5<1 μM)	≥ 150			
O=C(Nc1cncc(F)c1)N1c2nc(-c3cccc(N4CCC(F)(F)C4)c3)ccc2N2CC[C@H]1C2 [Example 271]	A (EC1.5<1 μM)	≥ 150			
O=C(Nc1ccncc1F)N1c2nc(-c3cccc(OC[C@@H](O)CO)c3)ccc2N2CC[C@H]1C2 [Example 157]			≥ 150	B (EC1.5 1-25 μM)	
N#Cc1ccccc1-c1ccc2c(n1)N(C(=O)Nc1cccnn1)[C@H]1CCCN2C1 [Example 426]	B (EC1.5 1-25 μM)	≥ 150			
O=C(Nc1cnccn1)N1c2nc(-c3cccc(C(F)(F)F)n3)ccc2N2CC[C@H]1C2 [Example 338]	B (EC1.5 1-25 μM)	≥ 150			
O=C(Nc1ccncn1)N1c2nc(-c3cccc(C(F)(F)F)c3)ccc2N2CCC1CC2 [Example 172]			≥ 150	B (EC1.5 1-25 μM)	
COc1cc(NC(=O)N2c3nc(-c4cnccc4C)ccc3N3CCC[C@H]2C3)ncn1 [Example 511]	C (EC1.5>25 μM)	< 150			
O=C(Nc1cccc(-c2cnco2)c1)N1c2nc(N3CCCC(C(F)(F)F)C3)ccc2N2CCC[C@H]1C2 (stereo partly shown) [Example 285]	A (EC1.5<1 μM)	≥ 150			
CCN(CC)C(=O)N1c2nc(-c3cccc(C(F)(F)F)c3)ccc2N2CC[C@H]1C2 [Example 52]			< 150	C (EC1.5>25 μM)	
O=C(Nc1cncc(F)c1)N1c2nc(N3CCCC(C(F)(F)F)C3)ccc2N2CCC[C@@H]1C2 (stereo partly shown) [Example 304]	B (EC1.5 1-25 μM)	≥ 150			
Cc1nc(NC(=O)N2c3nc(-c4ccccc4C#N)ccc3N3CCC[C@H]2C3)sc1C [Example 476]	B (EC1.5 1-25 μM)	≥ 150			
Cc1cncc(-c2ccc3c(n2)N(C(=O)Nc2ccccn2)[C@H]2CCCN3C2)c1 [Example 504]	A (EC1.5<1 μM)	≥ 150			
O=C(Nc1ccccn1)N1c2nc(-c3cc(F)cc(C(F)(F)F)c3)ccc2N2CC[C@H]1C2 [Example 333]	A (EC1.5<1 μM)	≥ 150			
Cn1cc(-c2ccc3c(n2)N(C(=O)Nc2ccccn2)[C@H]2CCN3C2)cn1 [Example 349]	B (EC1.5 1-25 μM)	≥ 150			
O=C(Nc1cccc(-c2cnco2)n1)N1c2nc(-c3cccc(C(F)(F)F)c3)ccc2N2CCC1CC2 [Example 596]	A (EC1.5<1 μM)	≥ 150			
Cc1cc(C)nc(NC(=O)N2c3nc(-c4cccc(C(F)(F)F)c4)ccc3N3CCC[C@H]2C3)c1 [Example 30]			≥ 150		
CC(C)(C)OC(=O)N1CCCc2ccc(NC(=O)N3c4nc(-c5cccc(C(F)(F)F)c5)ccc4N4CC[C@H]3C4)cc21 [Example 610]	B (EC1.5 1-25 μM)	≥ 150			
Cc1cnc(NC(=O)N2c3nc(N4CCCC(C(F)(F)F)C4)ccc3N3CCC[C@H]2C3)s1 (stereo partly shown) [Example 296]	B (EC1.5 1-25 μM)	≥ 150			

The next lines start with the values.

Tryp AVG EC1.5 (μM) [1]	Emax (Trp peptide substrate) [%]	Emax (Trp mass spectrometry assay) [%]	Tryp AVG EC1.5 (μM) [2]	Tryp AVG EC1.5 (μM) [3]	SMILES
A (EC1.5<1 μM)	≥ 150				N#Cc1cncc(-c2ccc3c(n2)N(C(=O)Nc2ccccn2)[C@H]2CCCN3C2)c1 [Example 557]
A (EC1.5<1 μM)	≥ 150				Cc1cc(-c2ccc3c(n2)N(C(=O)Nc2ccc4cn(C)cc4c2)[C@H]2CCN3C2)ccn1 [Example 483]
B (EC1.5 1-25 μM)	≥ 150				O=C(NCCc1ccccn1)N1c2nc(-c3cccc(C(F)(F)F)c3)ccc2N2CC[C@H]1C2 [Example 614]
B (EC1.5 1-25 μM)	≥ 150				CN(C)[C@H]1CCN(c2ccc3c(n2)N(C(=O)Nc2cnccn2)[C@H]2CCN3C2)C1 [Example 246]
		≥ 150	A (EC1.5<1 μM)		O=C1OCc2ccc(NC(=O)N3c4nc(-c5cccc(C(F)(F)F)c5)ccc4N4CC[C@H]3C4)cc21 [Example 93]
		≥ 150	B (EC1.5 1-25 μM)		O=C(Nc1ccncn1)N1c2nc(N3CCCC(C(F)(F)F)C3)ccc2N2CC[C@H]1C2 (stereo partly shown) [Example 211]
A (EC1.5<1 μM)	≥ 150				Cc1nc(-c2cccc(NC(=O)N3c4nc(-c5cccc(C(F)(F)F)c5)ccc4N4CC[C@H]3C4)c2)cs1 [Example 583]
B (EC1.5 1-25 μM)	≥ 150				Cc1cc(C)nc(NC(=O)N2c3nc(N4CCCC(C(F)(F)F)C4)ccc3N3CCC[C@H]2C3)c1 (stereo partly shown) [Example 287]
		≥ 150		A (EC1.5<1 μM)	NCCCc1ccc(NC(=O)N2c3nc(-c4cccc(C(F)(F)F)c4)ccc3N3CCC[C@H]2C3)cc1-c1cnco1 [Example 767]
A (EC1.5<1 μM)	≥ 150				O=C(Nc1cnccn1)N1c2nc(-c3ccc(Cl)c(C(F)(F)F)c3)ccc2N2CC[C@H]1C2 [Example 435]
B (EC1.5 1-25 μM)	≥ 150				O=C(Nc1ccncn1)N1c2nc(-c3cccc(Cl)c3)ccc2N2CC[C@@H]1C2 [Example 234]
B (EC1.5 1-25 μM)	≥ 150				O=C(Nc1cnccn1)N1c2nc(-c3ccnc(N4CC[C@@H](F)C4)c3)ccc2N2CC[C@H]1C2 [Example 462]
		< 150			Cc1ccc2ncccc2c1NC(=O)N1c2nc(-c3cccc(C(F)(F)F)c3)ccc2N2CC[C@H]1C2 [Example 84]
		≥ 150	B (EC1.5 1-25 μM)		CC1CN2CC1N(C(=O)Nc1ccncc1)c1nc(-c3cccc(C(F)(F)F)c3)ccc12 (stereo not shown) [Example 114]
		≥ 150	B (EC1.5 1-25 μM)		COc1cc(NC(=O)N2c3nc(-c4cccc(Cl)c4)ccc3N3CC[C@H]2C3)nc(OC)n1 [Example 103]
		≥ 150		A (EC1.5<1 μM)	CN1CCN(c2ccnc(NC(=O)N3c4nc(-c5cccc(C(F)(F)F)c5)ccc4N4CC[C@H]3C4)n2)CC1 [Example 742]
B (EC1.5 1-25 μM)	≥ 150				O=C(Nc1ccncc1)N1c2nc(N3CCCC(C(F)(F)F)C3)ccc2N2CCC[C@@H]1C2 (stereo partly shown) [Example 305]
		≥ 150			O=C(Nc1ccncc1F)N1c2nc(-c3cccc(C(F)(F)F)c3)ccc2N2CC[C@H]1C2 [Example 15]
B (EC1.5 1-25 μM)	≥ 150				COc1ncc(-c2ccc3c(n2)N(C(=O)Nc2ccccn2)[C@H]2CCN3C2)c(OC)n1 [Example 263]
B (EC1.5 1-25 μM)	≥ 150				O=C(NCCc1ccncc1)N1c2nc(-c3cccc(C(F)(F)F)c3)ccc2N2CC[C@H]1C2 [Example 613]
		≥ 150	B (EC1.5 1-25 μM)		O=C(Nc1cccnn1)N1c2nc(C3CCCC(C(F)(F)F)C3)ccc2N2CC[C@H]1C2 (stereo partly shown) [Example 143]
